The values below come from ChEMBL document CHEMBL1201862, “PubChem BioAssay data set” (2004).

Assay [1] deals with C-C chemokine receptor type 6 (Homo sapiens, UniProt P51684). Briefly: CCR6 receptor antagonists, dose response, cell-based, luminescent beta-arrestin readout (AID 504728). It counts as functional.
The target of the next assay is Beta-galactosidase (Escherichia coli, UniProt Q8VNN2). Description: beta-galactosidase enzyme inhibitors and activators, dose response, artefact control for CCR6 antagonist project, biochemical, E. coli enzyme, set 3 (AID 504712). The assay is classed as functional.
Chain of Beta-galactosidase (Q8VNN2 whole entry): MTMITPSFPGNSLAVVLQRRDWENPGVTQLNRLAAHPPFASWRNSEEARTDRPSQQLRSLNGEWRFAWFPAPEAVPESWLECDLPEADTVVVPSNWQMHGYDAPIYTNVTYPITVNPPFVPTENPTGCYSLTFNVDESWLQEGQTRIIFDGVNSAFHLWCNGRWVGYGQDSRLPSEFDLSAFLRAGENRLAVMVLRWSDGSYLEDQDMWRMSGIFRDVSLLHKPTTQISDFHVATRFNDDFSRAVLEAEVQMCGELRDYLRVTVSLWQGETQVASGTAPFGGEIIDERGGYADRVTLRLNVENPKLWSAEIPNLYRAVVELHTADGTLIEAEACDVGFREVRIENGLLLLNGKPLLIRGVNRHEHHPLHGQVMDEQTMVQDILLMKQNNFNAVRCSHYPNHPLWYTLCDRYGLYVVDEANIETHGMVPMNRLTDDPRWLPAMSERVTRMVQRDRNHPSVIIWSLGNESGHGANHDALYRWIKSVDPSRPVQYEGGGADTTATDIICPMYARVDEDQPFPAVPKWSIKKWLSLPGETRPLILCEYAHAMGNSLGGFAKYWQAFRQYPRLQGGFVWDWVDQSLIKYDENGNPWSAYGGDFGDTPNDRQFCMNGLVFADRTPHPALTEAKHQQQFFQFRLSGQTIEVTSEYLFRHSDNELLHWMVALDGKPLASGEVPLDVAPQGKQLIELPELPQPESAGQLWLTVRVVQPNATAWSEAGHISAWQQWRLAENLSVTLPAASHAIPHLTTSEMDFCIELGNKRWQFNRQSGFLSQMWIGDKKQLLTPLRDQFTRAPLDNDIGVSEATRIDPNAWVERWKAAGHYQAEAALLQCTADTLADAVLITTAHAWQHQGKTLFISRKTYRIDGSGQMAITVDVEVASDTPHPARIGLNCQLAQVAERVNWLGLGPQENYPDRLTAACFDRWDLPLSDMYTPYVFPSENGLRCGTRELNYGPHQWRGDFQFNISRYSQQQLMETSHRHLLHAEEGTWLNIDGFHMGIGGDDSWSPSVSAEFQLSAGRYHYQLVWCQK
The test system of the next assay is Vero. Description: Vero cell cytotoxicity, cytotoxicity control for flavivirus capping enzyme inhibitors (AID 588742). It counts as functional. As to conditions: Chlorocebus sabaeus.
The target of a further assay is Genome polyprotein (dengue virus type 2, UniProt P29990). Description: Dengue-2 NS5 methyltransferase inhibitors, primary screen, biochemical, confirmation dose response (AID 588689). It counts as functional.
Assay [2] is described as follows: Shn3 3'UTR reporter inhibitors, dose response, cell-based, Clone20 osteoblasts, firefly luciferase, cherry-picked (AID 624132).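 Note: firefly luciferase luminescence from reporter carrying the Shn3 3'UTR in osteoblasts.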 The assay is classed as functional.
Assay [3] is described as follows: HepG2 cell cytotoxicity, dose response, cytotoxicity control for Shn3 inhibitor project, CellTiter-Glo, cherry-picked (AID 624134). It counts as functional, cell-based. Background: ATP-based viability assays read luminescence as a measure of living cells.
A short description of assay [4]: control 3'UTR Renilla luciferase suppression, dose response, counter-screen for Shn3 inhibitor project, cell-based, Clone20-Shn3RL, cherry-picked (AID 624133). The assay is classed as functional. Background: Counterscreens check selectivity or assay interference.
In assay [5] the target is T1, Fatty acid synthase (Homo sapiens, UniProt P49327). Briefly: FAS thioesterase domain inhibitors, dose response, biochemical, endpoint fluorescence intensity, uHTS hits (AID 624327).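 Note: fluorescence from hydrolysis of an O-methyl fluorescein acyl ester substrate by the enzyme.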 The assay is classed as functional.
T1 sequence (P49327 whole entry, the tested form may be a part): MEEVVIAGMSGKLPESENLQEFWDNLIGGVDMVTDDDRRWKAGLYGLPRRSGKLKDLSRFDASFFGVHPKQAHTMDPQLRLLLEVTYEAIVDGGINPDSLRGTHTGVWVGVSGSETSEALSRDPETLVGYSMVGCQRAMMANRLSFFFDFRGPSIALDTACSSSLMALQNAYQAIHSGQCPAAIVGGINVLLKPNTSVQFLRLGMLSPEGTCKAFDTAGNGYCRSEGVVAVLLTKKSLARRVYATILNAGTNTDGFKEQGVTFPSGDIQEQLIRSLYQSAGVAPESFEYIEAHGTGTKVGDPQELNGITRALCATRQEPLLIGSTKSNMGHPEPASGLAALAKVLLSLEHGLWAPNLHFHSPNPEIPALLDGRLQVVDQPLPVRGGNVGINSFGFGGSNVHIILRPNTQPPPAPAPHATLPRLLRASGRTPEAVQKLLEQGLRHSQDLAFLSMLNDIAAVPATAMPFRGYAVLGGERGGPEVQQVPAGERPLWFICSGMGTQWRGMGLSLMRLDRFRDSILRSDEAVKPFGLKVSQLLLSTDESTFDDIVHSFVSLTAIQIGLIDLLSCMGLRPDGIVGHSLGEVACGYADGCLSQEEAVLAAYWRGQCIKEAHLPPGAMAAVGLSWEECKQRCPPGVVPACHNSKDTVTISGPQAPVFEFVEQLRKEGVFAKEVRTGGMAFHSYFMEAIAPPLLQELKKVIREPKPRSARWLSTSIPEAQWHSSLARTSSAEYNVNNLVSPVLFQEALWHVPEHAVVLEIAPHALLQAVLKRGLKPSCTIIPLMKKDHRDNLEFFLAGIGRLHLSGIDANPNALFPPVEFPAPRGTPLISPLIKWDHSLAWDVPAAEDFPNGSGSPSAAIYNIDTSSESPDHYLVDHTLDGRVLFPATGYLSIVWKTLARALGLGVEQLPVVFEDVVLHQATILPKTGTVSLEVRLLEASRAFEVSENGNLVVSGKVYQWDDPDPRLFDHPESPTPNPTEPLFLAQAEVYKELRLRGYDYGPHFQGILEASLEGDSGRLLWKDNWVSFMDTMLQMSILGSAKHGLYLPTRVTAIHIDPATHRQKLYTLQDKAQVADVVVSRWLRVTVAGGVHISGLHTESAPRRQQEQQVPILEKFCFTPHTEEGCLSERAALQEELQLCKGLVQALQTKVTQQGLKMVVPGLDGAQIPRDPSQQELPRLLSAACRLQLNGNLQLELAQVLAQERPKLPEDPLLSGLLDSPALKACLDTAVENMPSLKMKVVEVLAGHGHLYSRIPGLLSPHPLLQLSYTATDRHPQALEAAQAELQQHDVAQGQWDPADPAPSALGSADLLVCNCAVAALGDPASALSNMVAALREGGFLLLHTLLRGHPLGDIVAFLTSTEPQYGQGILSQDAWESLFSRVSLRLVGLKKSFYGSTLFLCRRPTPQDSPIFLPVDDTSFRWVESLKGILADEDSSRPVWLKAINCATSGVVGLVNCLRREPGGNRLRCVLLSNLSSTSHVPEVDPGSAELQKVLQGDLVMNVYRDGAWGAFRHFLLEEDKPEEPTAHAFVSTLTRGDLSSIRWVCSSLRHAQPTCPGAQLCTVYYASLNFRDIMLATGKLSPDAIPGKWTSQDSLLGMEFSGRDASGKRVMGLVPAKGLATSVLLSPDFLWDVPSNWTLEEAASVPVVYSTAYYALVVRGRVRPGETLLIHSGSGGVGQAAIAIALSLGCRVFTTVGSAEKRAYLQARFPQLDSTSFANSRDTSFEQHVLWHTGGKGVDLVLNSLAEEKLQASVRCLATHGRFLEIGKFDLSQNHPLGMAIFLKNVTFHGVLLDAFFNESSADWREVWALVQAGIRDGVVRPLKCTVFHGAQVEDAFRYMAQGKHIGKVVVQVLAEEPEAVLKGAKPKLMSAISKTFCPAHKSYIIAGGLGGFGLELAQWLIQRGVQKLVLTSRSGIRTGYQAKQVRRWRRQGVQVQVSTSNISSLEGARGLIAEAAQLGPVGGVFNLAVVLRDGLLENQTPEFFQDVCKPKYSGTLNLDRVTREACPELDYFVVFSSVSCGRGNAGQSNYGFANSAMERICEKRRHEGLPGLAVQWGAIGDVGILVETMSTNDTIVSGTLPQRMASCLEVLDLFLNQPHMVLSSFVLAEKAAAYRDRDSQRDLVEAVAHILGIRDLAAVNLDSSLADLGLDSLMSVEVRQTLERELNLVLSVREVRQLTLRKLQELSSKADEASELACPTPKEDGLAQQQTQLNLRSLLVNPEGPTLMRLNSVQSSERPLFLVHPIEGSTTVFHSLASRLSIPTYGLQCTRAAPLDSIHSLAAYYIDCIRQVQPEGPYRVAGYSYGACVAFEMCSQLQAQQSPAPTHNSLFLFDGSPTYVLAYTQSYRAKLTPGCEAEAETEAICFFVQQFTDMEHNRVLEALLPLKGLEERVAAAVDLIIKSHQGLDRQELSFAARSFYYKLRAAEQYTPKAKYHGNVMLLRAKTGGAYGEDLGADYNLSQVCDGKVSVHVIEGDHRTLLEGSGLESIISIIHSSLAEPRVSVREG
Assay [6] is described as follows: HeLa cell cytotoxicity, dose response, cytotoxicity control for MgcRacGAP inhibitor project (AID 624300). It counts as functional.
In assay [7] the target is T2, Rac GTPase-activating protein 1 (Homo sapiens, UniProt Q9H0H5).
T2 sequence (Q9H0H5 whole entry): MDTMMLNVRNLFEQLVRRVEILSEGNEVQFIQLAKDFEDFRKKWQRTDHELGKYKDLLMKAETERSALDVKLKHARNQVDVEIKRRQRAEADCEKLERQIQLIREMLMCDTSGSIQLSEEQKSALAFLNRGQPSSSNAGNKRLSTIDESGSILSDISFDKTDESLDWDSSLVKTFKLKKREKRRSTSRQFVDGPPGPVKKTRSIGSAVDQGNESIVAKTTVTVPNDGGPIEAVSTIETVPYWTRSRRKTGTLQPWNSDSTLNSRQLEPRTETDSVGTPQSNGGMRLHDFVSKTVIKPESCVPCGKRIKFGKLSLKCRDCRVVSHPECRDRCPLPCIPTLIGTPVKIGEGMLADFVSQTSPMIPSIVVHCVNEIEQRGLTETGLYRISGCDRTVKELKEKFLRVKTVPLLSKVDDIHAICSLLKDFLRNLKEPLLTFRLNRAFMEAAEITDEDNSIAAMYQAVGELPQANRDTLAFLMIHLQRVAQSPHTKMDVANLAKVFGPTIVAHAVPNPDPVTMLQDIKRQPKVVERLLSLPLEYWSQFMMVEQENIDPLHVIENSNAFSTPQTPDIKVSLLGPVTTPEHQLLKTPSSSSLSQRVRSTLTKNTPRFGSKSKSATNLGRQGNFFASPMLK
Briefly: MgcRacGAP GTPase-activating activity inhibitors, confirmation, biochemical, ADP Hunter fluorescence, primary and confirmatory (AID 624330). The assay is classed as functional.

Assay [8] addresses T1, Fatty acid synthase. Briefly: FAS thioesterase domain inhibitors, dose response, biochemical, kinetic fluorescence intensity (AID 624326).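 Note: rate of fluorescence rise from hydrolysis of a fluorogenic O-methyl fluorescein ester substrate.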 It counts as functional.
The target of assay [9] is T3, Voltage-gated N-type calcium channel alpha-1B subunit/Amyloid beta A4 precursor protein-binding family A member 1 (Homo sapiens, UniProt Q00975+Q02410). Description: disruptors of Mint-PDZ/N-type channel peptide interaction – biochemical, HTRF, set 2, SAR follow-up (AID 434980). It counts as functional. (In TR-FRET formats the signal depends on donor and acceptor labels being close together.)

Assay [10] concerns the target T3, Voltage-gated N-type calcium channel alpha-1B subunit/Amyloid beta A4 precursor protein-binding family A member 1. Briefly: disruptors of Mint-PDZ/N-type channel peptide interaction – biochemical, HTRF, SAR follow-up (AID 2489). It counts as functional.
For assay [11], the target named is Metabotropic glutamate receptor 4 (Rattus norvegicus, UniProt P31423). Briefly: Modulation of the Metabotropic Glutamate Receptor mGluR4: Rat PAM Potency. [Related pubchem assays (depositor defined):AID2437, AID2807]. It counts as functional.
Chain of Metabotropic glutamate receptor 4 (P31423 whole entry): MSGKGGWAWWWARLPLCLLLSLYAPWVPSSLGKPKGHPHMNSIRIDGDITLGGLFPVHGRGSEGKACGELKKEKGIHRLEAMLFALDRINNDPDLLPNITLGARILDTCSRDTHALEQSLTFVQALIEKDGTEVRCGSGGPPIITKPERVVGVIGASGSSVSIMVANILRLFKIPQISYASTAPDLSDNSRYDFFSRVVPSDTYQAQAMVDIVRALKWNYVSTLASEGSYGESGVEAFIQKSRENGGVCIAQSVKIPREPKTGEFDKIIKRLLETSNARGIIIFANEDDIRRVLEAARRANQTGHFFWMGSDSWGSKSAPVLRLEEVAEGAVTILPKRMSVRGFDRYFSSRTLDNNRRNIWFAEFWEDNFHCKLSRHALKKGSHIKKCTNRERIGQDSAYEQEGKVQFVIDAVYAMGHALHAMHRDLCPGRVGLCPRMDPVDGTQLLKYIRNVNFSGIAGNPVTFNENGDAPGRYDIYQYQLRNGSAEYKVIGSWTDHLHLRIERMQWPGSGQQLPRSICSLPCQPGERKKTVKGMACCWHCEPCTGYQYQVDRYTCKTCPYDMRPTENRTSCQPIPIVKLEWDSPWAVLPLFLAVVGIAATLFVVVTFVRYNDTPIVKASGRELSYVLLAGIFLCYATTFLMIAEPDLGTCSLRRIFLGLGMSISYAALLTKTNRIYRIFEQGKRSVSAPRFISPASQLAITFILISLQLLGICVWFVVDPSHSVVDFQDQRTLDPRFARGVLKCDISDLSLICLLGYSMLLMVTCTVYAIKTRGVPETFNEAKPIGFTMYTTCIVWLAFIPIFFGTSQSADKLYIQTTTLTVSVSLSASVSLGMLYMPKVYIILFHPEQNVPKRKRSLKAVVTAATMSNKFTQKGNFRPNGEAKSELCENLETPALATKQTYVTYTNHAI
In assay [12] the target is T4, Eukaryotic translation initiation factor 2-alpha kinase 3 (Homo sapiens, UniProt Q9NZJ5).
T4 sequence (Q9NZJ5 whole entry): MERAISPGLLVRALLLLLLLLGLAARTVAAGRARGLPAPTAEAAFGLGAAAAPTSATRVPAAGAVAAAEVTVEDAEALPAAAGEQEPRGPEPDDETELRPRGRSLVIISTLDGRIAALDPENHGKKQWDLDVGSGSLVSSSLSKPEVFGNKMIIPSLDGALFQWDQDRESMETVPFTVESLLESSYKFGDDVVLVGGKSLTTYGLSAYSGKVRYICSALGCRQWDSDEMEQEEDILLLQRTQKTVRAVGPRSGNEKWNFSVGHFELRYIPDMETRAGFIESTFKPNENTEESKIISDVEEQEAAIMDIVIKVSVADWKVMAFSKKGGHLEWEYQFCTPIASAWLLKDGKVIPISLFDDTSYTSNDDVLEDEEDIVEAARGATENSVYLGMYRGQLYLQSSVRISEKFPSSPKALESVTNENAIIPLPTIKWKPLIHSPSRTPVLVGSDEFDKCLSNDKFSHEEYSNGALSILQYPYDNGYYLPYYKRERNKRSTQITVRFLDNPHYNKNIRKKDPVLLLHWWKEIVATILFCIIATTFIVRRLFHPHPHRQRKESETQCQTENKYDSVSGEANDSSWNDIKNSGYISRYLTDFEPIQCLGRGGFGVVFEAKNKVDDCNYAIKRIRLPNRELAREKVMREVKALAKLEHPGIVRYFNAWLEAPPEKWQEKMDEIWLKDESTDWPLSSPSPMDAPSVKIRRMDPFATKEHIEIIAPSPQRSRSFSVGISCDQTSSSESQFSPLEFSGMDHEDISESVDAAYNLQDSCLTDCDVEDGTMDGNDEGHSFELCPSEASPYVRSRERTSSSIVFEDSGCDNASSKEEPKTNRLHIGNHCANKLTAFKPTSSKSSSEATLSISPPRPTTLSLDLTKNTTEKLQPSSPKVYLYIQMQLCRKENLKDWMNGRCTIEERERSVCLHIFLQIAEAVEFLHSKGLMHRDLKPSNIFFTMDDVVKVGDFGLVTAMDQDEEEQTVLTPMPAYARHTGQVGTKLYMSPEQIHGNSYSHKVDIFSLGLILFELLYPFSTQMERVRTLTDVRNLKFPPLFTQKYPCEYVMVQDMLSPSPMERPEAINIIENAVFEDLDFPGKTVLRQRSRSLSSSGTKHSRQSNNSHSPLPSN
Description: Dose response cell-based high-throughput screening assay to measure PERK inhibition. [Related pubchem assays: 1416 ]. The assay is classed as functional.

The target of assay [13] is T4, Eukaryotic translation initiation factor 2-alpha kinase 3. Description: Counterscreen assay for PERK inhibitors: Dose response cell-based high throughput screening assay to measure inhibition of PERK at 6 hours. [Related pubchem assays: 1522, 1416 ]. It counts as functional.
In assay [14] the target is FAD-linked sulfhydryl oxidase ALR (Homo sapiens, UniProt P55789). Briefly: inhibitors of human ALR sulfhydryl oxidase, dose response, biochemical, H2O2 detection, luminescence, cherry-pick (AID 493248).
Chain of FAD-linked sulfhydryl oxidase ALR (P55789 whole entry): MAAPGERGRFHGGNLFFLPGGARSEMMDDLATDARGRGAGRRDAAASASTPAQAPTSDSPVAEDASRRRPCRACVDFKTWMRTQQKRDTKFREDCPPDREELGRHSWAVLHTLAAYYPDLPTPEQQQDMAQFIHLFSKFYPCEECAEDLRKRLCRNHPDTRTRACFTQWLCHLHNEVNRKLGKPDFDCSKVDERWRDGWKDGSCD

Calls of active or inactive are those of the source. Bounds are passed on as bounds.

Chain of C-C chemokine receptor type 6 (P51684 whole entry): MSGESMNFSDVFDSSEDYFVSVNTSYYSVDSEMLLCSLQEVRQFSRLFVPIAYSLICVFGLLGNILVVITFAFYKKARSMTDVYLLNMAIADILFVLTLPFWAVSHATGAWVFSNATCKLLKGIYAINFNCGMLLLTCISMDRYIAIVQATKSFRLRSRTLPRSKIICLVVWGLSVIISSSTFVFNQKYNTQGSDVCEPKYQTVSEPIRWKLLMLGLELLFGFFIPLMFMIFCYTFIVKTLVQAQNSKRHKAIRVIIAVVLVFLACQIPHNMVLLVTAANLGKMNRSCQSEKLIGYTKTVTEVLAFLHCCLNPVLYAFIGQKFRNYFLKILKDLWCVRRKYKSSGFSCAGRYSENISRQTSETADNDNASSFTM

Regarding `CC1(C)CC[C@]2(C(=O)n3ccnc3)CC[C@]3(C)[C@H](C(=O)C=C4[C@@]5(C)C=C(C#N)C(=O)C(C)(C)[C@@H]5CC[C@]43C)[C@@H]2C1`, the IC50 is 11.5 µM (active) in assay [1]; > 66.6 µM (inactive) on Beta-galactosidase; 38.2 µM (active) on Genome polyprotein; 2.85 µM (active) on Fatty acid synthase [5]; 20.7 µM (active) in assay [7]; 1.77 µM (active) on Fatty acid synthase [8]. Moreover, the CC50 in the assay on Vero is < 0.63 µM (active); in [6], 5.19 µM (active). The concentration at half-maximal activity (AC50) in [2] is < 0.26 µM (active); in [3], 5.13 µM (active); in [4], 0.376 µM (active).

As to `O=C(c1cc(-c2ccco2)nc2ccccc12)N1CCCCC1Cc1ccccc1` (centres undefined), the IC50 in [9] and in [10] was > 56.8 µM (inactive) throughout.

For `O=C(Nc1ccc(N2C(=O)[C@@H]3[C@H](C2=O)[C@H]2C=C[C@@H]3CC2)c(Cl)c1)c1ccccn1`, in [11], the EC50 is 0.25 µM (active).

With `CC(=O)c1ccc(N/N=C2/CCCNC2=O)cc1`, the 50% effective concentration (EC50) in [12] and in assay [13] was > 55.7 µM (not active) throughout. In addition, the AC50 in assay [14] was 3.67 µM (active).

As to `C=CCS/C(N)=N\N=C\c1cc(Br)cc([N+](=O)[O-])c1O`, the IC50 (in assay [1]; on Beta-galactosidase) was > 66.6 µM (inactive) throughout.

As usually defined, the IC50 is the midpoint of a concentration-inhibition curve. A word on the CC50: it is the concentration at which the toxic effect on the cells reaches its halfway point. As a reminder, the AC50 is the concentration giving half of the maximal activity seen. A word on the EC50: it is the midpoint of the concentration-response curve.
